This is an account of results in article PMC12654037, “Norditerpene Natural Products from Subterranean Fungi with Anti-Parasitic Activity” (Microorganisms, 2025).

One data set concerns HFF cells. The data set can be described thus: HFF cytotoxicity assay. Type of data set: cell-based. The following applies: confluent. On the procedure: (§1) HCT-8 and HFF cytotoxicity assays: Cytotoxicity of the compounds was determined against both confluent (the conditions of the infection assays) and growing HCT-8 and HFF host cells, as previously described. Cells were seeded into white-sided, clear-bottom 96-well plates and grown to either 40% or 100% confluency. Compounds were added to cells at various concentrations up to 100 µM in a final DMSO concentration of 0.5%. DMSO was run in parallel as a vehicle control. After 48 h, the viability of the cells was determined by either quantification of cellular ATP (Cell-Titer Glo cell viability assay; Promega, Madison WI, USA) or by MTT assay. Viability was determined 24 h after compound addition to HFF cells or 48 h after compound addition to HCT-8 cells or HepG2 cells. The percent cell growth was then calculated with the following formula: % Cell Growth = [RLUcompound/RLUDMSO] × 100. Samples were run in triplicate with two to three biological replicates.

The next data set has as its system P. falciparum 3D7. The data set is described as follows: Plasmodium falciparum growth inhibition assay (SYBR Green I), 3D7. The following applies: 3D7, 72 h, read-out: EC50 3D7(M).
The subject of another data set is C. parvum. The data set can be described thus: C. parvum growth inhibition assay (Cp-NLuc-infected HCT-8 cells). It is filed as cell-based, Cryptosporidium parvum. The note with it: for EC50: Cryptosporidium parvum, HCT-8, intracellular nanoluciferase-expressing C. parvum in vitro, Figure 1 table, read-out: EC50 (μM), C. parvum; for parasite inhibition in pilot screen: CpNLuc-infected HCT-8 cells, initial dose 5 µg/mL. On the procedure: C. parvum growth inhibition assays: The in vitro growth inhibition assay of C. parvum has been previously described. Briefly, clear-bottom, white-sided 96 well plates were seeded with HCT-8 cells. Once the cells reached between 50% and 75% confluency, they were infected with Cp-NLuc oocysts (10,000/well) in complete media containing 0.6% taurocholate. At 24 h post-infection (hpi), the infected cells were treated with compounds at various concentrations. DMSO was used as a vehicle control in parallel. Parasite growth was determined at 72 hpi by measuring relative luminescence units (RLUs) using Promega Nano-Glo substrate (Promega, Madison, WI, USA) and a SpectraMax® L Microplate Reader (Molecular Devices, San Jose, CA, USA). The percent inhibition of parasite growth was calculated as [(RLUDMSO − RLUcompound)/RLUDMSO] × 100.

The test system of the next data set is HuF fibroblast cell line. The note with it: sub-confluent; ref Rusman et al. 2020 [25]; cited from earlier work.
Another data set has as its system P. falciparum line Dd2. The data set can be described thus: Plasmodium falciparum growth inhibition assay (SYBR Green I), Dd2. The note with it: for EC50: Plasmodium falciparum, DD2, 72 h, read-out: EC50 Dd2 (M).
For another data set, the system named is HCT-8 cells. The data set can be described thus: HCT-8 cytotoxicity assay. Type of data set: cell-based. On the procedure:
as §1

In another data set the test system is HepG2 human hepatocytes. The data set can be described thus: HepG2 cytotoxicity assay (MTS). It is filed as cell-based. The note with it: 48 h, mean +/- SD. The procedure: HepG2 cytotoxicity assay: Mammalian cell cytotoxicity was assessed in HepG2 human hepatocytes using an MTS 3-(4,5-dimethylthiazol-2-yl)-5-(3-carboxymethoxyphenyl)-2-(4-sulfophenyl)-2H-tetrazolium)-based cytotoxicity assay. For cytotoxicity testing, ∼2250 cells were seeded into each well of a 384-well microtiter plate and incubated for 24 h. Serial dilutions of the compounds were added in triplicate starting at 25 μM. Cells were further incubated for an additional 48 h at 37 °C in an atmosphere containing 5% CO2. Zero-growth control wells were incubated with 5% Triton X-100 for 5 min prior to MTS addition. Following the addition of MTS to all wells, the plates were incubated for an additional 4 h under the same environmental conditions before taking absorbance measurements. Absorbance values were recorded at 490 nm using a Synergy Neo2 multimode reader (BioTek), and values were normalized based on Triton X-100-lysed and no treatment controls. Samples were run in triplicate in each assay, and the experiments were repeated three times.

For the next data set, the system named is C. parvum sporozoites. The data set can be described thus: C. parvum invasion inhibition assay. It is filed as cell-based, Cryptosporidium parvum. The note with it: 100 nM, 3 h infection. On the procedure:
C. parvum excystation and invasion assays: Oocyst excystation rates in the presence of compounds were determined as previously described. The C. parvum invasion inhibition assays were conducted in two formats. In the first format, described previously, HCT-8 cells were seeded on glass slides (CELLTREAT Scientific Product, Pepperell, MA, USA) and allowed to grow to confluence. Oidiolactone A was added to the cells for one hour. TrtE and DMSO were run in parallel as positive and negative controls, respectively. The cell monolayers were then infected with 1.2 × 10^6 wild-type C. parvum oocysts. After 3 h of incubation at 37 °C, the slides were washed five times with 111 mM D-galactose, fixed with 4% paraformaldehyde, and permeabilized with 0.25% Triton-X. C. parvum sporozoites were detected with rabbit anti-gp40 [39] and Alexa Fluor 594 goat anti-rabbit antibodies. The HCT-8 cell nuclei were stained with 0.09 mM Hoechst. Slides were coded to enable unbiased counting, and sporozoites from at least 10 randomly selected fields were counted in each sample at 100× magnification (Zeiss® Axioscope 5). The percentage of invaded parasites was determined using the following equation: % Invaded parasites = [parasitescompound/parasitesDMSO] × 100. This experiment was run in duplicate with two biological replicates. […]

Protocol for P. falciparum 3D7: (§2) Plasmodium falciparum growth inhibition assay: Antiplasmodial EC50 results were determined using a fluorescence-based SYBR Green I assay performed using asynchronous cultures [30, 35]. […] Plates were subsequently frozen at −80 °C to facilitate lysis. […] Relative fluorescence units (RFUs) were normalized based on chloroquine-treated and no treatment controls. Serial dilutions of compounds were prepared in RPMI with final assay conditions of ≤0.2% DMSO. Each assay was conducted in triplicate with three biological replicates.
Protocol for P. falciparum line Dd2: as §2

As usually defined, the EC50 is the concentration giving half of the maximal effect. Consider `C[C@@]12CCC[C@]3(C)C4=CC(=O)OC[C@]45O[C@@H]5[C@@H](OC1=O)[C@@H]23` [compound 2, oidiolactone C], for which the “TC50 HFF (confluent)” value in the data set on HFF cells is given as over 30 µM. Further, in the data set on P. falciparum 3D7, the EC50 is 2.78e-06 ± 3.97e-07 M. In addition, the EC50 with C. parvum turned out to be 1.8 µM. The “TC50 HuF (sub-confluent)” value in the data set with HuF fibroblast cell line was over 30 µM. In addition, in the data set with P. falciparum line Dd2, the “SI: selectivity index=EC50 HepG2/ EC50 compound” value came to 7 and the EC50 is 2.49e-06 ± 1.98e-07 M. Besides, in the data set on HCT-8 cells, the “TC50 HCT-8 (confluent)” value is given as over 30 µM and the “TC50 HCT-8 (sub-confluent)” value is on record as 1.35 ± 0.2 µM. The TC50 HepG2 in the data set with HepG2 human hepatocytes came to 17.1 ± 0.821 µM.

Take `C[C@@]12CCC[C@]3(C)C4=CC(=O)O[C@@H](O)[C@]45O[C@@H]5[C@@H](OC1=O)[C@@H]23` [compound 3, oidiolactone D]: the EC50 with P. falciparum 3D7 and in the data set on P. falciparum line Dd2 was over 5e-06 M each time. For the same compound, the “TC50 HuF (sub-confluent)” value with HuF fibroblast cell line was over 30 µM. Further, in the data set with HepG2 human hepatocytes, the TC50 HepG2 is over 25 µM.

On to `C[C@]12C(=O)O[C@@H]3[C@H]4O[C@@]45C(=CC(=O)O[C@H]5O)[C@@](C)(CC[C@H]1O)[C@@H]32` [compound 4, oidiolactone G], for which the EC50 in the data set with P. falciparum 3D7 and with P. falciparum line Dd2 was over 5e-06 M in each case. Moreover, in the data set on C. parvum, the “parasite inhibition in pilot screen” value was “eliminates activity”. Also, in the data set on HuF fibroblast cell line, the “TC50 HuF (sub-confluent)” value is given as over 30 µM. Besides, the TC50 HepG2 in the data set on HepG2 human hepatocytes was over 25 µM.

In the case of `COC(=O)/C=C1/[C@]2(C(OC)OC)O[C@@H]2[C@H]2OC(=O)[C@@]3(C)CCC[C@@]1(C)[C@@H]23` [compound 5, oidiolactone H], in the data set on C. parvum, the “parasite inhibition in pilot screen” value was “abolishes inhibitory activity”. For the same compound, the “TC50 HuF (sub-confluent)” value in the data set with HuF fibroblast cell line is given as over 30 µM.

For the compound `COC(=O)/C=C1/[C@]2(C=O)O[C@@H]2[C@H]2OC(=O)[C@@]3(C)CCC[C@@]1(C)[C@@H]23` [compound 6, oidiolactone I], the “TC50 HFF (confluent)” value in the data set with HFF cells is over 30 µM. Further, the EC50 in the data set with P. falciparum 3D7 was 3.65e-06 ± 5.96e-07 M; in the data set with C. parvum it was 7.8 µM; in the data set with P. falciparum line Dd2, over 4.99e-06 M. Moreover, in the data set on HuF fibroblast cell line, the “TC50 HuF (sub-confluent)” value was over 30 µM. The “TC50 HCT-8 (confluent)” value in the data set on HCT-8 cells is on record as over 30 µM. Also, the “TC50 HCT-8 (sub-confluent)” value in the data set on HCT-8 cells came to 4.8 ± 0.7 µM. In addition, in the data set with HepG2 human hepatocytes, the TC50 HepG2 is over 25 µM.

As for `CO[C@H]1OC(=O)C=C2C1=C[C@H]1OC(=O)[C@@]3(C)[C@H](O)CC[C@@]2(C)[C@@H]13` [compound 8, oidiolactone J], the “TC50 HFF (confluent)” value in the data set on HFF cells is recorded as over 30 µM. The 50% effective concentration (EC50) with P. falciparum 3D7 was over 5e-06 M; in the data set with C. parvum it was 7.8 µM; with P. falciparum line Dd2, over 5e-06 M. For the same compound, in the data set with HuF fibroblast cell line, the “TC50 HuF (sub-confluent)” value is reported as over 30 µM. For the same compound, the “TC50 HCT-8 (confluent)” value in the data set on HCT-8 cells was over 30 µM. Moreover, the “TC50 HCT-8 (sub-confluent)” value with HCT-8 cells is recorded as over 30 µM. For the same compound, the TC50 HepG2 with HepG2 human hepatocytes was over 25 µM.

With `C[C@]12C(=O)O[C@@H]3C=C4C(=CC(=O)O[C@@H]4O)[C@@](C)(CC[C@H]1O)[C@@H]32` [compound 9, oidiolactone K], the EC50 in the data set on P. falciparum 3D7 and with P. falciparum line Dd2 was over 5e-06 M in each case. Moreover, in the data set on HuF fibroblast cell line, the “TC50 HuF (sub-confluent)” value is reported as over 30 µM. Moreover, the TC50 HepG2 in the data set on HepG2 human hepatocytes was over 25 µM.

In the case of `C[C@@]12CCC[C@]3(C)C4=CC(=O)O[C@H](O)C4=C[C@@H](OC1=O)[C@@H]23` [compound 10, yukonin], the “TC50 HFF (confluent)” value with HFF cells is over 30 µM. Also, the 50% effective concentration (EC50) in the data set on C. parvum came to 1.09 µM. For the same compound, in the data set with HCT-8 cells, the “TC50 HCT-8 (confluent)” value is over 30 µM and the “TC50 HCT-8 (sub-confluent)” value was 2.5 ± 0.3 µM.

Regarding `C[C@]1(C(=O)O)CCC[C@]2(C)C3=CC(=O)OCC3=CC[C@@H]12` [compound 11, oidiodendronic acid], the “TC50 HFF (confluent)” value in the data set on HFF cells was over 30 µM. Also, the EC50 in the data set on P. falciparum 3D7 was over 5e-06 M; in the data set on C. parvum, 9.1 µM; in the data set with P. falciparum line Dd2, over 5e-06 M. Moreover, the “TC50 HuF (sub-confluent)” value in the data set with HuF fibroblast cell line is on record as over 30 µM. In addition, the “TC50 HCT-8 (confluent)” value in the data set on HCT-8 cells is over 30 µM. Further, the “TC50 HCT-8 (sub-confluent)” value with HCT-8 cells was found to be 19.7 ± 4.8 µM. Also, in the data set on HepG2 human hepatocytes, the TC50 HepG2 was over 25 µM.

Turning to `C[C@@]12CCC[C@]3(C)c4cc(=O)occ4[C@H](O)[C@@H](OC1=O)[C@@H]23` [compound 12, oidiolactone L], the EC50 in the data set on P. falciparum 3D7 and in the data set with P. falciparum line Dd2 was over 5e-06 M in each case. Moreover, the “parasite inhibition in pilot screen” value in the data set with C. parvum was “inactive”. The “TC50 HuF (sub-confluent)” value with HuF fibroblast cell line was over 30 µM. Further, the TC50 HepG2 in the data set with HepG2 human hepatocytes was over 25 µM.

With `C[C@]12CCC[C@](C)(C(=O)O)[C@@H]1C=C[C@]1(O)COC(=O)C[C@H]21` [compound 13, oidiolactone E], the EC50 in the data set on P. falciparum 3D7 and with P. falciparum line Dd2 was over 5e-06 M throughout. Besides, in the data set on HepG2 human hepatocytes, the TC50 HepG2 was over 25 µM.

For the compound `C=C1C(O)C[C@@H]2[C@](C)(CCC[C@]2(C)C(=O)O)[C@H]1CC(=O)O` (stereo partly drawn) [compound 14, LL-Z1271β], the EC50 in the data set with P. falciparum 3D7 and with P. falciparum line Dd2 was over 5e-06 M in each case. Moreover, the “TC50 HuF (sub-confluent)” value with HuF fibroblast cell line is on record as over 30 µM. The TC50 HepG2 in the data set with HepG2 human hepatocytes is over 25 µM.

Take `C[C@@H]1CCC2CC(=O)C[C@@H](O)CC/C=C/C=C\CC[C@H](C)OC(=O)[C@@H]3O[B-]45O[C@@H](C(=O)O[C@@H](C)CC/C=C\C=C\CC[C@H](O)CC(=O)CC6CC[C@@H](C)[C@]3(O6)O4)[C@@]1(O2)O5` [tartrolon E, reference compound]: the “effect on parasite invasion (positive control)” value with C. parvum sporozoites is on record as “completely inhibited parasite invasion”.
